Measurements from PMC12085399, “Quantitative in vitro-to-in vivo extrapolation of human adrenergic and trace amine-associated receptor 1 potencies of pre-workout supplement ingredients using physiologically based kinetic modelling-based reverse dosimetry” (Archives of Toxicology, 2025).
Read-outs that look alike come from different tables or passages of the source.

Assays:
ADRα1A = assay: PBK modelling-based reverse dosimetry of in vitro EC50 to ED50, ADRα1A; conditions: predicted human oral ED50 from in vitro EC50 (Pinckaers et al. [2024]) and modelled Cmax plasma venous
Source text: (§1) The in vitro effect concentrations (EC50), for activation of the α1A, α1B, α1D, α2A, α2B, β1 and β2 ADR activation and the activation of TAAR1, were obtained from our previous study (Pinckaers et al. [2024]).

ADRα1B = assay: PBK modelling-based reverse dosimetry of in vitro EC50 to ED50, ADRα1B; conditions: predicted human oral ED50 from in vitro EC50 (Pinckaers et al. [2024]) and modelled Cmax plasma venous
Source text: as §1

in vitro = conditions: human; for Papp B→A at 60 min, 10 µM: Caco-2, pH 7.4; for recovery at 60 min, 10 µM: after 60 min, mean ± SD
Description: (§2) Caco-2 cells (ATCC, Manassas, VA, USA; passage 30–44) were cultured in DMEM (Gibco, New York, USA) containing 4.5 g/L d-glucose, 4 mM L-glutamine and supplemented with 10% FBS (Gibco, Grand Island, NY, USA), 1% minimal essential medium non-essential amino acids (Gibco, Paisley, UK), 100 units/mL penicillin and 100 µg/mL streptomycin (Gibco, Grand Island, NY, USA). Cells were seeded at a density of 4.0 × 10^4 cells/cm^2 on polyester transwell insert membranes (12 mm insert, 0.4 µm pore size; Corning incorporated, Kennebunk, ME, USA). Cells were maintained in a humidified incubator with 5% CO2 at 37 °C for 21 or 22 days in 0.5 mL and 1.5 mL medium in the apical and basolateral compartments, respectively. The medium was refreshed every two or three days and always one day before the permeability assay.
(§3) On the day of the experiment, cells were washed twice with HBSS without phenol red (pH 7.4; Sigma-Aldrich, Steinheim, Germany) supplemented with 0.35 g/L sodium bicarbonate and 25 mM HEPES and they were equilibrated in this supplemented HBSS for 15 min in a humidified incubator with 5% CO2 at 37 °C. […] These stocks were diluted to a final concentration of 10 µM in pre-warmed supplemented HBSS (final DMSO level = 0.1%). After 15 min, the transepithelial electrical resistance (TEER) was measured with an Epithelial Voltohmmeter (World Precision Instruments, Sarasota, USA). Compound transport was studied in two directions: from the apical to the basolateral compartment (A-B) and from the basolateral to the apical compartment (B-A). For A-B experiments, 450 µL of the compound (10 µM) was added to the apical side and 1200 µL supplemented HBSS was added to the basolateral side. A sample of 50 µL was removed immediately from the apical compartment at time point zero. After 15 and 30 min, samples were taken from the basolateral compartment. Cells were kept in the incubator during the experiment. After 60 min, medium from both compartments was sampled, cells were washed twice with supplemented HBSS and were maintained in the incubator. After 15 min, the TEER was measured again to check for epithelial barrier damage due to compound exposure. After this, cells were lysed in RIPA buffer (Thermo Scientific, Rockford, IL, USA). For B-A experiments, 400 µL of supplemented HBSS was added to the apical side and 1250 µL of the compound (10 µM) was added to the basolateral side. A sample of 50 µL was removed immediately from the basolateral compartment at time point zero. After 15 and 30 min, samples were taken from the apical compartment. After 60 min, samples were taken similarly as in A-B experiments. The sampled medium and cell lysates were stored at −20 °C till the day of the liquid chromatography–mass spectrometry (LC–MS/MS) analysis. All experiments were run in duplicate. The compounds were quantified with LC–MS/MS as described in Sect. "LC–MS/MS analysis".
(§4) Before chemical analysis, cell lysates were two times diluted in ice-cold methanol and centrifuged at 15,000 rpm at 4 °C. The supernatant was then injected into the LC–MS/MS system. Sampled buffer from donor compartments was diluted 40 times in buffer and samples from the receiver compartment were analysed undiluted. Standards were prepared in the same assay buffer to quantify the amount of compound in medium samples. For quantification of compounds in cell lysates, standards were prepared in a mixture of 50% RIPA buffer and 50% methanol.
(§5) All data are presented as mean ± SD.
(§6) For the < Tsi > a value of 3.32 h was used (Grandoni et al. [2019]).

Caco-2 cells = assay: in vitro; conditions: scaled from corrected Caco-2 Papp A-B, human
Description: as §2, §3, §4, §5, §6

ADRα2A = assay: PBK modelling-based reverse dosimetry of in vitro EC50 to ED50, ADRα2A; conditions: predicted human oral ED50 from in vitro EC50 (Pinckaers et al. [2024]) and modelled Cmax plasma venous
Source text: as §1

[1] = In vitro hepatic clearance by human liver S9 (compound depletion); type: in vitro ADME
Description: In vitro intrinsic hepatic clearance (CLint) values of the phenethylamine analogues were determined in experiments with pooled human liver S9 (HLS9; Corning, Woburn, MA, USA and Gibco, USA), by measuring the rate of compound depletion. Stocks of 1 mM PEA compounds were prepared in DMSO and stocks of 10 mg/mL alamethicin were prepared in methanol. The final incubation mixtures consisted of 1 µM of PEA compound (0.1% DMSO) in 100 mM potassium phosphate buffer with 5 mM magnesium chloride (pH 7.4) supplemented with 0.025 mg/mL alamethicin (0.25% methanol) and 0.1–2 mg/mL HLS9. […] Incubation mixtures were first pre-incubated at 37 °C in a shaking incubator at 300 rpm for 5 min. After 5 min, the reaction was initiated by adding a co-factor mix in supplemented buffer with final concentrations of 3 mM nicotinamide adenine dinucleotide phosphate (NADPH; for oxidation, reduction and hydrolysis), 5 mM uridine diphosphate glucuronic acid (UDPGA; for glucuronidation), 0.2 mM adenosine 3’-phosphate 5’-phosphosulfate lithium salt hydrate (PAPS; for sulfation) and 0.2 mM S-(5’-Adenosyl)-L-methionine p-toluenesulfonate salt (SAM; for methylation). The final incubation volume was 100 µL and incubations were performed in 1.5 mL Safe-Lock Eppendorf tubes (Eppendorf) in a shaking incubator (300 rpm) at 37 °C (Eppendorf Thermomixer). Incubations were terminated by adding 100 µL ice-cold acetonitrile after, 0, 2.5, 5, 10, 20, 40 and 60 min. Then, samples were vortexed, put on ice and stored at -20 °C until the day of the LC–MS/MS analysis. Controls of incubation mixtures without HLS9 or mixtures without co-factors were also included. Two independent experiments, both in duplicate, were performed on different days. On the day of the LC–MS/MS analysis, samples were thawed and centrifuged at 15,000 rpm for 10 min. The supernatant was collected in glass insert vials for LC injection (BGB Analytik, Harderwijk, The Netherlands). Details on the methods of the LC–MS/MS analysis are described in Sect. "LC–MS/MS analysis". After determining the PEA (analogue) amount at the different time points, the CLint was calculated. The natural logarithm of compound concentrations was plotted against time and the slope of this curve represented the elimination rate constant k (in 1/min). The half-life (t1/2 in minutes) was calculated by: ln (2)/k (in 1/min). The volume of incubation (V) in µL/mg protein was determined by: 1000 / HLS9 concentration (in mg/mL). Finally, CLint could be calculated by: CLintμL/min/mg protein=VμL/mg protein∗ln2/t1/2min.
The fraction unbound in these in vitro liver clearance incubations was calculated with the method of (Hallifax and Houston [2006]) in which unspecific binding in HLS9 incubations was assumed to be the same as in liver microsomal incubations. The in vitro obtained HLS9 CLint values were corrected for protein binding in the HLS9 incubation and were scaled to a whole liver by using a scaling factor of 121 mg HLS9/g liver (Houston and Galetin [2008]).

TAAR1 = assay: PBK modelling-based reverse dosimetry of in vitro EC50 to ED50, TAAR1; set-up: species or system human; conditions: predicted human oral ED50 from in vitro EC50 (Pinckaers et al. [2024]) and modelled Cmax plasma venous
Source text: as §1

ADRα1D = assay: PBK modelling-based reverse dosimetry of in vitro EC50 to ED50, ADRα1D; conditions: predicted human oral ED50 from in vitro EC50 (Pinckaers et al. [2024]) and modelled Cmax plasma venous
Source text: as §1

ADRβ2 = assay: PBK modelling-based reverse dosimetry of in vitro EC50 to ED50, ADRβ2; conditions: predicted human oral ED50 from in vitro EC50 (Pinckaers et al. [2024]) and modelled Cmax plasma venous
Source text: as §1

[2] = Caco-2, pH 7.4, Papp A-B, Caco-2, apical to basolateral, 10 µM, HBSS pH 7.4, mean ± SD, duplicate

Row | Compound | ADRα1A ED50 (ADRα1A) | ADRα1B ED50 (ADRα1B) | Papp B→A at 60 min, 10 µM (in vitro) | Papp A→B at 60 min, 10 µM (in vitro; Caco-2, pH 7.4, Papp A-B corrected, corrected for the difference between Papp A-B of metoprolol in this study and in literature) | Papp A→B at 60 min, 10 µM (in vitro; [2]) | recovery at 60 min, 10 µM (in vitro; Caco-2, pH 7.4, Recovery (A-B), Caco-2, A-B experiments) | recovery at 60 min, 10 µM (in vitro; Caco-2, pH 7.4, Recovery (B-A), Caco-2, B-A experiments) | fa (fraction absorbed) (Caco-2 cells) | ka (absorption rate constant) (Caco-2 cells) | ADRα2A ED50 (ADRα2A) | Predicted intrinsic hepatic metabolic clearance CLmet ([1]; CLint,u scaled to a whole liver, 121 mg HLS9/g liver, human) | metabolism in incubations without co-factor mix ([1]; HLS9 without co-factor mix) | k el at 1 µM ([1]; human, pH 7.4) | microsomal CLint at 1 µM ([1]; human, s9, pH 7.4, CLint app corrected for unspecific protein (HLS9) binding, read-out: In vitro CLint,u) | microsomal CLint at 1 µM ([1]; human, s9, pH 7.4, human liver S9 with co-factor mix (NADPH, UDPGA, PAPS, SAM), 1 µM, read-out: In vitro CLint app) | TAAR1 ED50 (TAAR1) | ADRα1D ED50 (ADRα1D) | ADRβ2 ED50 (ADRβ2)
1 | NCC(O)c1ccc(O)cc1 (centres unmarked) [p-Octopamine, octopamine] | 15.7 mg/kg bw | 5.58 mg/kg bw | 0.117 ± 0.0171 ×10⁻⁶ cm/s | 0.584 ×10⁻⁶ cm/s | 0.164 ± 0.0701 ×10⁻⁶ cm/s | 98.9 ± 1.77% | 109 ± 15% | 0.947 | 0.395 h⁻¹ | – (compounds with a dash (-) did not activate the receptors in vitro at concentrations ≤ 300 µM) | 75.4 L/h | metabolized in incubations without co-factor mix | 0.000203 s⁻¹ | 7.06 µL/min/mg | 6.05 µL/min/mg | 65.8 mg/kg bw | 1.72 mg/kg bw | – (compounds with a dash (-) did not activate the receptors in vitro at concentrations ≤ 300 µM)
2 | COCCc1ccc(OCC(O)CNC(C)C)cc1 (centres unmarked) [Metoprolol, metoprolol, reference compound] | – | – | 9.25 ± 0.17 ×10⁻⁶ cm/s | – | 11.2 ± 0.197 ×10⁻⁶ cm/s | – | – | – | – | – | – | – | – | – | – | – | – | –
